# The Kinase Knowledgebase extract (Sharma et al. 2016)
# Target: CDK2 (human) (UniProt P24941)
# Assay: Enzyme Assay
row,Structure (SMILES),IC50 [µM]
1,CCc1c(NC2CCCNC2)nc2c(Cl)cnn2c1Nc1ccc(I)cc1 (stereo unspecified),< 100
2,Cc1c(N[C@H]2CC[C@H](N)CC2)nc2ccnn2c1Nc1cccc(OCc2ccccc2Cl)c1,< 100
3,Cc1cccc(-c2ccc(Nc3c(C)c(N[C@H]4CC[C@H](N)CC4)nc4ccnn34)cc2)c1,< 100
4,Cc1c(N[C@H]2CC[C@H](N)CC2)nc2ccnn2c1Nc1ccc(-c2ccc(N(C)C)cc2)cc1,< 100
5,CCCc1c(N[C@H]2CC[C@H](N)CC2)nc2ccnn2c1Nc1ccc(F)c(Cl)c1,< 100
6,CCOc1ccccc1Nc1c(C)c(N[C@H]2CC[C@H](N)CC2)nc2ccnn12,< 100
7,CCc1c(NC2CCCNC2)nc2ccnn2c1Nc1ccc(Oc2ccc(C)cc2)cc1 (stereo unspecified),< 100
8,CCc1c(N[C@H]2CC[C@H](N)CC2)nc2ccnn2c1Nc1cccc(I)c1,< 100
9,CCOC(=O)c1ccc(Nc2c(CC)c(N[C@H]3CC[C@H](N)CC3)nc3ccnn23)cc1,< 100
10,CCS(=O)(=O)c1ccc(-c2ccc(Nc3c(C)c(N[C@H]4CC[C@H](N)CC4)nc4ccnn34)cc2)cc1,< 100
11,Cc1c(N[C@H]2CC[C@H](N)CC2)nc2ccnn2c1Nc1ccc(OCc2ccc(N)cc2)cc1,< 100
12,N[C@H]1CC[C@H](Nc2nc3ccnn3c(Nc3ccc(F)c(Cl)c3)c2-c2ccccc2)CC1,< 100
13,C=C(C)CNc1c(CC)c(N[C@H]2CC[C@H](N)CC2)nc2ccnn12,< 100
14,CSc1cnn2c(Nc3ccc(F)c(Cl)c3)cc(N[C@H]3CC[C@H](N)CC3)nc12,< 100
15,Cc1ccc(-c2ccc(Nc3c(C)c(N[C@H]4CC[C@H](N)CC4)nc4ccnn34)cc2)cc1,< 100
16,N[C@H]1CC[C@H](Nc2cc(Nc3ccc(F)c(Cl)c3)n3ncc(Cl)c3n2)CC1,< 100
17,CCc1c(NC2CCCNC2)nc2ccnn2c1Nc1ccc(OC)c(Cl)c1 (stereo unspecified),< 100
18,Cc1c(N[C@H]2CC[C@H](N)CC2)nc2ccnn2c1Nc1ccc(OCc2cccc(Cl)c2)cc1,< 100
19,CCCCC(=O)c1cnn2c(Nc3ccc(OCC)cc3)c(C)c(N[C@H]3CC[C@H](N)CC3)nc12,< 100
20,CCc1c(N[C@H]2CC[C@H](N)CC2)nc2ccnn2c1Nc1ccc(OC)c(OC)c1,< 100
21,Cc1c(N[C@H]2CC[C@H](N)CC2)nc2ccnn2c1Nc1ccc(-c2cncnc2)cc1,< 100
22,N[C@H]1CC[C@H](Nc2cc(NCc3ccc(F)c(Cl)c3)n3ncc(Br)c3n2)CC1,< 100
23,CCOc1ccc(Nc2c(C)c(N[C@H]3CC[C@H](N)CC3)nc3c(C(C)C)cnn23)cc1,< 100
24,Cc1c(NC2CCCNC2)nc2ccnn2c1Nc1ccc(-c2ccsc2)cc1 (stereo unspecified),< 100

row,Structure (SMILES),IC50 [µM]
1,CCc1c(NC2CCCNC2)nc2ccnn2c1Nc1ccc(F)c(Cl)c1 (stereo unspecified),< 100
2,COc1cccc(COc2ccc(Nc3c(C)c(N[C@H]4CC[C@H](N)CC4)nc4ccnn34)cc2)c1,< 100
3,CCc1c(N[C@H]2CC[C@H](N)CC2)nc2ccnn2c1Nc1cccc(C)c1,< 100
4,CCOc1ccc(Nc2c(C)c(N[C@H]3CC[C@H](N)CC3)nc3c(C4CCCCC4)cnn23)cc1,< 100
5,CCOc1ccc(Nc2c(C)c(NC3CCCNC3)nc3c(C4CC4)cnn23)cc1 (stereo unspecified),< 100
6,CCOc1ccc(Nc2c(C)c(N[C@@H]3CN[C@@H](C(=O)O)C3)nc3ccnn23)cc1,< 100
7,CCOc1ccc(Nc2c(C)c(N[C@H]3CC[C@H](N)CC3)nc3c(OC)cnn23)cc1,< 100
8,CCc1c(N[C@H]2CC[C@H](N)CC2)nc2ccnn2c1Nc1ccccc1OC,< 100
9,CCOc1ccc(Nc2cc(N[C@H]3CC[C@H](N)CC3)nc3c(I)cnn23)cc1,< 100
10,Cc1c(N[C@H]2CC[C@H](N)CC2)nc2ccnn2c1Nc1ccc2c(c1)OCCO2,< 100
11,COCCOc1ccc(Nc2c(C)c(N[C@H]3CC[C@H](N)CC3)nc3ccnn23)cc1,< 100
12,CCOc1ccc(Nc2c(C)c(N[C@H]3CC[C@H](N)CC3)nc3c(C4CC4)cnn23)cc1,< 100
13,CCOc1ccc(Nc2c(C)c(N[C@@H]3CCNC3)nc3ccnn23)cc1,< 100
14,CCOc1ccc(Nc2c(C)c(NC3CCCNC3)nc3c(C(C)C)cnn23)cc1 (stereo unspecified),< 100
15,CCOc1ccc(Nc2c(C)c(NC3CCCNC3)nc3c(C#N)cnn23)cc1 (stereo unspecified),< 100
16,COCc1cccc(-c2ccc(Nc3c(C)c(N[C@H]4CC[C@H](N)CC4)nc4ccnn34)cc2)c1,< 100
17,Cc1c(N[C@H]2CC[C@H](N)CC2)nc2ccnn2c1Nc1ccc(OC2CCCCC2)cc1,< 100
18,Cc1c(N[C@H]2CC[C@H](N)CC2)nc2ccnn2c1Nc1ccc(OCCN2CCCCC2)cc1,< 100
19,Cc1cc2cc(Nc3c(C)c(N[C@H]4CC[C@H](N)CC4)nc4ccnn34)ccc2[nH]1,< 100
20,Cc1c(N[C@H]2CC[C@H](N)CC2)nc2ccnn2c1Nc1ccc(-c2cccc(O)c2)cc1,< 100
21,CCc1c(N[C@H]2CC[C@H](N)CC2)nc2ccnn2c1Nc1ccc(C(N)=O)cc1,< 100
22,CCCCOc1ccc(Nc2c(CC)c(N[C@H]3CC[C@H](N)CC3)nc3ccnn23)cc1,< 100
23,Cc1c(N[C@H]2CC[C@H](N)CC2)nc2ccnn2c1Nc1ccc(OC2CCN(C)CC2)cc1,< 100
24,Cc1c(N[C@H]2CC[C@H](N)CC2)nc2ccnn2c1Nc1cccc(OCC(O)CO)c1 (stereo partly specified),< 100

row,Structure (SMILES),IC50 [µM]
1,Cc1c(N[C@H]2CC[C@H](N)CC2)nc2ccnn2c1Nc1ccccc1F,< 100
2,Cc1c(N[C@H]2CC[C@H](N)CC2)nc2ccnn2c1Nc1ccc(C(=O)NC2CCCC2)cc1,< 100
3,N#Cc1cnn2c(Nc3ccccc3Cl)cc(N[C@H]3CC[C@H](N)CC3)nc12,< 100
4,CCc1c(NC2CCNCC2)nc2ccnn2c1Nc1ccc(F)c(Cl)c1,< 100
5,Cc1c(N[C@H]2CC[C@H](N)CC2)nc2ccnn2c1Nc1ccc(-c2cc3ccccc3s2)cc1,< 100
6,CCc1c(N[C@H]2CC[C@H](N)CC2)nc2ccnn2c1Nc1cccc(C(N)=O)c1,< 100
7,CCc1c(N[C@H]2CC[C@H](N)CC2)nc2ccnn2c1Nc1cccc(Br)c1,< 100
8,Cc1c(N[C@H]2CC[C@H](N)CC2)nc2ccnn2c1Nc1cccc(Br)c1,< 100
9,CCOc1ccc(Nc2c(C)c(N[C@H]3CC[C@H](N)CC3)nc3ccnn23)cc1,< 100
10,Cc1c(N[C@H]2CC[C@H](N)CC2)nc2ccnn2c1Nc1cccc(CO)c1,< 100
11,N#Cc1cnn2c(Nc3ccc(F)c(Cl)c3)cc(N[C@H]3CC[C@H](N)CC3)nc12,< 100
12,Cc1c(N[C@H]2CC[C@H](N)CC2)nc2ccnn2c1Nc1ccc2[nH]ncc2c1,< 100
13,COc1c(N[C@H]2CC[C@H](N)CC2)nc2ccnn2c1Nc1ccc(F)c(Cl)c1,< 100
14,Cc1c(N[C@H]2CC[C@H](N)CC2)nc2c(F)cnn2c1Nc1ccc(I)cc1,< 100
15,Cc1c(N[C@H]2CC[C@H](N)CC2)nc2ccnn2c1Nc1ccc(CO)cc1,< 100
16,Cc1c(N[C@H]2CC[C@H](N)CC2)nc2ccnn2c1Nc1ccc(-c2cccc(N)c2)cc1,< 100
17,COc1ccc(Nc2c(C)c(N[C@H]3CC[C@H](N)CC3)nc3ccnn23)cc1,< 100
18,CCOC(=O)c1ccc(Nc2c(CC)c(N[C@H]3CC[C@H](N)CC3)nc3ccnn23)cc1Cl,< 100
19,CC1=[SH]c2cc(Nc3c(C)c(N[C@H]4CC[C@H](N)CC4)nc4ccnn34)ccc2N1,< 100
20,Cc1c(N[C@H]2CC[C@H](N)CC2)nc2ccnn2c1Nc1ccc(OCCc2ccccn2)cc1,< 100
21,CCOc1ccc(Nc2c(C)c(N[C@H]3CC[C@H](N)CC3)nc3c(CC)cnn23)cc1,< 100
22,Cc1ccccc1COc1cccc(Nc2c(C)c(N[C@H]3CC[C@H](N)CC3)nc3ccnn23)c1,< 100
23,Cc1c(N[C@H]2CC[C@H](N)CC2)nc2ccnn2c1Nc1ccc(-c2ccc(CO)cc2)cc1,< 100
24,CCOc1cccc(Nc2cc(N[C@H]3CC[C@H](N)CC3)nc3c(C#N)cnn23)c1,< 100

row,Structure (SMILES),IC50 [µM]
1,Cc1c(N[C@H]2CC[C@H](N)CC2)nc2ccnn2c1Nc1ccc(C(=O)c2ccccc2)cc1,< 100
2,CCOc1cccc(Nc2c(CC)c(N[C@H]3CC[C@H](N)CC3)nc3ccnn23)c1,< 100
3,Cc1c(N[C@H]2CC[C@H](N)CC2)nc2ccnn2c1Nc1ccc(-c2cccc(C#N)c2)cc1,< 100
4,Cc1c(N[C@H]2CC[C@H](N)CC2)nc2ccnn2c1Nc1ccc(C(=O)NCc2cccnc2)cc1,< 100
5,Cc1c(N[C@H]2CC[C@H](N)CC2)nc2ccnn2c1Nc1cccc(OCc2ccc(Cl)cc2)c1,< 100
6,Cc1c(NC2CCCNC2)nc2ccnn2c1Nc1ccc(F)c(Cl)c1 (stereo unspecified),< 100
7,Cc1c(N[C@H]2CC[C@H](N)CC2)nc2ccnn2c1Nc1ccc(-c2cccc(OC(F)(F)F)c2)cc1,< 100
8,CCOc1ccc(Nc2c(C)c(N[C@H]3CC[C@H](N)CC3)nc3c(C(=O)Nc4cccnc4)cnn23)cc1,< 100
9,Cc1c(N[C@H]2CC[C@H](N)CC2)nc2ccnn2c1Nc1ccc(OCCCl)cc1,< 100
10,CCc1c(N[C@H]2CC[C@H](N)CC2)nc2ccnn2c1Nc1ccccc1Cl,< 100
11,CCc1c(N[C@H]2CC[C@H](N)CC2)nc2ccnn2c1Nc1cccc(Oc2ccccc2)c1,< 100
12,CCOc1ccc(Nc2c(C)c(NC3CCCNC3)nc3c(CC)cnn23)cc1 (stereo unspecified),< 100
13,Cc1c(N[C@H]2CC[C@H](N)CC2)nc2ccnn2c1Nc1ccc2cc[nH]c2c1,< 100
14,Cc1c(N[C@H]2CC[C@H](N)CC2)nc2ccnn2c1Nc1cccc(Cl)c1,< 100
15,Cc1c(N[C@H]2CC[C@H](N)CC2)nc2ccnn2c1Nc1ccc(-c2cc3ccccc3[nH]2)cc1,< 100
16,Cc1c(N[C@H]2CC[C@H](N)CC2)nc2ccnn2c1Nc1ccc(-c2ccc(N)cc2)cc1,< 100
17,Cc1c(N[C@H]2CC[C@H](N)CC2)nc2ccnn2c1Nc1ccc(N2CCCCC2)cc1,< 100
18,Cc1c(NC2CCCNC2)nc2ccnn2c1Nc1ccc(-c2cccc(N)c2)cc1 (stereo unspecified),< 100
19,Cc1c(NC2CCCNC2)nc2ccnn2c1Nc1ccc(-c2ccc(N)cc2)cc1 (stereo unspecified),< 100
20,CCc1c(N[C@H]2CC[C@H](N)CC2)nc2ccnn2c1Nc1ccc(OCc2ccccc2)cc1,< 100
21,CCOc1cccc(Nc2c(C)c(N[C@H]3CC[C@H](N)CC3)nc3ccnn23)c1,< 100
22,CCOc1ccc(Nc2c(C)c(NC3(CO)CCCC3)nc3ccnn23)cc1,< 100
23,Cc1c(N[C@H]2CC[C@H](N)CC2)nc2ccnn2c1Nc1ccc(OCc2ccccn2)cc1,< 100
24,Cc1c(N[C@H]2CC[C@H](N)CC2)nc2ccnn2c1Nc1ccc(OCCn2ccnc2)cc1,< 100
